Drawing on article PMC3711460 (The Journal of neuroscience : the official journal of the …, 2013), this text covers EC50 for three compounds.

The target of assay [1] is T1, TAAR3 (Mus musculus, UniProt Q5QD16).
T1 sequence (Q5QD16 1-343): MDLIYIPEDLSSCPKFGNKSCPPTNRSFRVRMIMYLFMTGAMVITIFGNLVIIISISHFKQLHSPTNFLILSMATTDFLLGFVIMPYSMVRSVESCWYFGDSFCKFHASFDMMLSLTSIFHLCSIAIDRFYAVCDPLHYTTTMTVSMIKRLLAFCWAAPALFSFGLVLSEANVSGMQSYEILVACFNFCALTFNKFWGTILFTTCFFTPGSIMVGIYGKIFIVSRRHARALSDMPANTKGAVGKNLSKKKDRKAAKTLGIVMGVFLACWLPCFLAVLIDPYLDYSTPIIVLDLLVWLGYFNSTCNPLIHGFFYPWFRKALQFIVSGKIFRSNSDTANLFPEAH
Format: cell-based.

Assay [2] concerns the target T2, human TAAR5 (Homo sapiens, UniProt O14804).
T2 sequence (O14804 1-337): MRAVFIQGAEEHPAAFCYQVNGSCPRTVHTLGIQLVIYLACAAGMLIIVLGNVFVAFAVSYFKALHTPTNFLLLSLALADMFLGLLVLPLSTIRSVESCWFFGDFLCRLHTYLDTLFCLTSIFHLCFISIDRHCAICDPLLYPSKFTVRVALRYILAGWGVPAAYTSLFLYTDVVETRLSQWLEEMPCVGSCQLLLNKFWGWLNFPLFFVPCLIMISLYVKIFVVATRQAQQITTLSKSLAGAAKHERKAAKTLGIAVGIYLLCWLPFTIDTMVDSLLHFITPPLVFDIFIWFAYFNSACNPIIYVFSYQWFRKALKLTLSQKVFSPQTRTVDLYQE
Format: cell-based.

By EC50 is commonly meant the concentration at which the effect is half-maximal. Lower therefore signals higher potency in that assay. The compound `NC1CCCCC1` [CHX, cyclohexylamine] gave a concentration for a half-maximal effect (EC50) in assay [1] of 270 nM.
`CCN(C)C` [DMEA, N,N-dimethylethylamine]: in assay [2], the midpoint of the response, the EC50, lay at 1200 ± 600 nM.
Compound `CC(C)CCN` [IPA, isopentylamine] came in with an EC50 in assay [1] of 15 nM.
